Results published in patent publication US12440498B2 (priority 2020, dated 2025).

Legend:
[1] = system: A/H1N1 I38T (I38T mutation on the PA subunit, baloxavir-resistant); assay type: cell-based, influenza A virus
[2] = system: A/H1N1 virus; experiment: microbe, parasite or virus in culture; assay type: cell-based, influenza A virus; conditions: Influenza A virus, H1N1, MDCK, read-out: IC50 baloxavir (active form)
[3] = system: influenza virus with M431I substitution in PB2; conditions: cited from earlier work

COc1ccc([C@@H]2Sc3ccccc3N(CCN(C)C)C(=O)[C@@H]2OC(C)=O)cc1.Cl [diltiazem]
transepithelial resistance (TEER), integrity of infected epithelia [1]: remain stable

O=C1c2c(O)c(=O)ccn2N([C@@H]2c3ccccc3SCc3c2ccc(F)c3F)[C@@H]2COCCN12 [baloxavir, baloxavir acid]
IC50 [2]: 0.2 nM

O=C(O)[C@H]1C2CCC(CC2)[C@@H]1Nc1nc(-c2c[nH]c3ncc(F)cc23)ncc1F [pimodivir]
decrease in sensitivity [3]: around 60 fold
